The text below walks through data of patent publication EP0379351A1, “1,4-Dihydropyridine derivatives” (SYNPHAR LABORATORIES INC., priority 1989, dated 1990).

Like-named read-outs stand apart in the source and are kept apart here.

Experiment [1] is described as follows: General pharmacological screening: anti-inflammatory activity. The conditions noted are these: result in words.
The subject of experiment [2] is guinea pig ileal longitudinal smooth muscle. Put plainly: Calcium channel antagonist testing: inhibition of carbachol-induced, muscarinic receptor-mediated Ca2+-dependent contraction of smooth muscle. In kind it is cell-based. The conditions noted are these: for relative potency compared with Nifedipine: calcium antagonist in smooth muscle, Nifedipine = 1. From the text: The compounds of this invention of formulae I and II are suitably prepared, applying modified Hantzsch pyridine synthesis, by reacting the appropriately substituted heterocyclic alkyl acetoacetate or substituted heterocyclic mercapto alkyl acetoacetate with a substituted benzaldehyde derivative and methyl-β-aminocrotonate in isopropanol. The compounds of formula III are suitably prepared by reacting diketene or an alkyldiketene with an appropriately substituted heterocyclic ω-alkanol or substituted heterocyclic mercapto ω-alkanol in benzene. The related sulfoxy and sulfonyl derivatives of formula VI may be prepared by oxidizing the relative mercapto derivative with m-chloroperbenzoic acid in CH₂Cl₂ followed, if required, by further oxidation with potassium permanganate in acetic acid. All the products in this invention are characterized by their respective nmr, ir spectra and their elemental analysis. The relative purity has been determined by HPLC. Calcium antagonistic activity of the compounds was determined at the concentration required to produce 50% inhibition of the muscarinic receptor-mediated Ca²⁺-dependent contraction of guinea pig ileal longitudinal smooth muscle assay.
Calcium channel antagonist activity was determined as the concentration required to produce 50% inhibition of the muscarinic receptor-mediated Ca⁺²-dependent contraction of guinea pig ileal longitudinal smooth muscle assay (C. Triggle, V. Swamy and D. Triggle, Can. J. Physiol. Pharmacol., 1979, 57, 804). Male albino guinea pigs (body weight 300 - 450g) were sacrificed by decapitation. The intestine was removed above the ileocaecal junction. Longitudinal smooth muscle segments of 2cm length were mounted under a resting tension of 300 - 400 mg. The segments were maintained at 37°C in a 10mL jacketed organ bath containing oxygenated (100% O₂) physiological saline solution of the following composition (mM): NaCl: 137; CaCl₂: 2.6; KCl: 5.9; MgCl₂: 1.2; glucose: 11.9; buffered by Hepes-NaOH to pH 7.4. The muscles were equilibrated for 1h with a solution change every 15 min. Two successive control contractions were elicited at 15 min. intervals with 5x10⁻⁷M carbachol. The isometric contractions were recorded with a force displacement transducer (FT 03C) on a GRASS* physiograph. The means of the […] contractile responses was taken as the 100% value for the tonic (slow) component of the response. The muscle was washed with Hepes saline solution and was allowed to re-equilibrate. The calcium antagonist (test compound) was added ten min before the dose-response for carbachol was determined. The drug-induced inhibition of contraction was expressed as percent of control. The ID₅₀ values were graphically determined from the concentration-response curves, in triplicate.

For experiment [3], the system named is heart muscle. As to the kind of experiment: Ionotropic effect and heart rate on heart muscle. The format is cell-based. The conditions noted are these: for heart contractile force / heart rate: at the concentrations which normally exhibit the Ca-blocking effect in smooth muscles; for positive ionotropic effect on the heart muscle: same concentration as smooth muscle relaxant (IC50 concentration; 3.25 x 10⁻⁹M for Compound 11).

The subject of another experiment is angiotensin. As to the kind of experiment: In-vitro angiotensin inhibitory activity. The format is biochemical. Particulars: for angiotensin inhibitory activity: general pharmacological screening, result in words.
For a further experiment, the system named is LTD₄. As to the kind of experiment: General pharmacological screening: LTD4 antagonistic activity. Particulars: result in words.
A short description of experiment [4]: General pharmacological screening: anti-ulcer stressic activity. Particulars: result in words.
Another experiment relates to SHR Rat. As to the kind of experiment: Blood pressure and heart rate in SHR Rat. In kind it is in vivo. The conditions noted are these: 0.2mg/Kg.
The test system of experiment [5] is heart muscle. The conditions noted are these: in the concentration of its smooth muscle calcium channel blocking effectiveness; cited from earlier work.
Where [6] appears, read: Cavia porcellus, read-out: IC₅₀ as a calcium antagonist in smooth muscle.
Where [7] appears, read: Cavia porcellus, exponent (x 10⁻⁹), carbachol 5x10⁻⁷M, tonic component, triplicate, read-out: calcium channel antagonist act., inhib. act. on contractile Response to CD ID₅₀.

For the molecule `COC(=O)C1=C(C)NC(C)=C(C(=O)OCCCCCCn2nc(C)cc2C)C1c1cccc([N+](=O)[O-])c1` (centres unmarked), the anti-inflammatory activity entry in experiment [1] is “very strong”.
With `COC(=O)C1=C(C)NC(C)=C(C(=O)OCCCCCCS(=O)(=O)c2nc(C)cs2)C1c1cccc([N+](=O)[O-])c1` (centres unmarked) [listing 1 of 2 here], the IC50 in experiment [2] (setting [6]) came to 5.57 nM.
Regarding `COC(=O)C1=C(C)NC(C)=C(C(=O)OCCCCCCS(=O)(=O)c2nc(C)cs2)C1c1cccc([N+](=O)[O-])c1` (centres unmarked) [listing 2 of 2 here], in the experiment on heart muscle [3], the heart contractile force entry is listed as “increase the heart contractile force” and the heart rate result is “without changing the heart rate”.
As for `COC(=O)C1=C(C)NC(C)=C(C(=O)OCCCCCCCc2cc(C)no2)C1c1cccc([N+](=O)[O-])c1` (centres unmarked), the angiotensin inhibitory activity result in the experiment with angiotensin is recorded as “very strong”. Moreover, the LTD₄ antagonistic activity result in the experiment with LTD₄ is “very strong”. In experiment [4], the anti-ulcer stressic activity entry is “very strong”.
Consider `COC(=O)C1=C(C)NC(C)=C(C(=O)OCCCCCCCc2nc(C)cs2)C1c1cccc(C(F)(F)F)c1` (centres unmarked), for which the anti-inflammatory activity entry in experiment [1] is on record as “very strong”.
With `COC(=O)C1=C(C)NC(C)=C(C(=O)OCCCCCCCc2nc(C)cs2)C1c1cccc(Cl)c1` (centres unmarked), the angiotensin inhibitory activity entry with angiotensin is recorded as “very strong”. Besides, the LTD₄ antagonistic activity entry in the experiment on LTD₄ is on record as “very strong”. The anti-ulcer stressic activity result in experiment [4] is on record as “very strong”.
As for `COC(=O)C1=C(C)NC(C)=C(C(=O)OCCCCCCCc2nc(C)cs2)C1c1cccc([N+](=O)[O-])c1` (centres unmarked), the IC50 in experiment [2] (setting [6]) came to 3.25 ± 0.33 nM. Besides, in experiment [2], the “relative potency compared with Nifedipine” value came to 4.3. Also, in the experiment on heart muscle [3], the heart contractile force entry is reported as “increase the heart contractile force” and the heart rate result is “without changing the heart rate”.
In the case of `COC(=O)C1=C(C)NC(C)=C(C(=O)OCCCCCCS(=O)(=O)c2nc(C)cs2)C1c1cccc([N+](=O)[O-])c1` (centres unmarked) [3-[6-(4-methylthiazol-2-yl)sulfonylhexyloxycarbonyl]-5-metho], the “relative potency compared with Nifedipine” value in experiment [2] is reported as 2.5. The “positive ionotropic effect on the heart muscle” value (“positive ionotropic effect” below) in the experiment on heart muscle [3] is reported as “about 22%”.
As to `C[C@H](CS)C(=O)N1CCC[C@H]1C(=O)O` [Captopril, reference compound], the “Percent Inhibition” value with angiotensin (Concentration 0.05 µg/ml) is reported as 69%.
On to `COC(=O)C1=C(C)NC(C)=C(C(=O)OCCCCCCCc2cc(C)no2)C1c1cccc([N+](=O)[O-])c1` (centres unmarked) [Compound 1, 3-[7-(3-methylisoxazol-5-yl)heptyloxycarbonyl]-5-methoxycarbonyl-2,6-dimethyl-4-(3-nitrophenyl)-1,4-dihydropyridine], for which the “Percent Inhibition” value is on record as 93% with angiotensin (Concentration 0.01 µg/ml) and 60% in the experiment on angiotensin (concentration of 0.0025 µg). In addition, the IC50 in experiment [2] (setting [7]) was 3.84 nM.
For `COC(=O)C1=C(C)NC(C)=C(C(=O)OCCCCCCCc2cc(C)no2)C1c1cccc(C(F)(F)F)c1` (centres unmarked) [Compound 3, 3-[7-(3-mehylisoxazol-5-yl)heptyloxycarbonyl]-5-methoxycarbonyl-2,6-dimethyl-4-(3-trifluoromethylphenyl)-1,4-dihydropyridine], in experiment [2] (exponent (x 10⁻⁹), carbachol 5x10⁻⁷M, tonic component, triplicate, read-out: calcium channel antagonist act., inhib. act. on contractile Response to CD ID₅₀), the IC50 turned out to be 5.13 nM.
As for `COC(=O)C1=C(C)NC(C)=C(C(=O)OCCCCCCn2nc(C)cc2C)C1c1cccc([N+](=O)[O-])c1` (centres unmarked) [Compound 5, 3-[6-(3,5-dimethylpyrazol-1-yl)hexyloxycarbonyl]-5-methoxycarbonyl-2,6-dimethyl-4-(3-nitrophenyl)-1,4-dihydropyridine], the results for the “Percent Inhibition” value in the experiment with angiotensin (Concentration 0.01 µg/ml) and in the experiment on angiotensin (concentration of 0.001 µg) were 95% and 58%, respectively. Moreover, the IC50 in experiment [2] (setting [7]) turned out to be 6.24 nM.
In the case of `COC(=O)C1=C(C)NC(C)=C(C(=O)OCCCCCCCc2nc(C)cs2)C1c1cccc([N+](=O)[O-])c1` (centres unmarked) [Compound 11, 3-[7-(4-methylthiazol-2-yl)heptyloxycarbonyl]-5-methoxycarbonyl-2,6-dimethyl-4-(3-nitrophenyl)-1,4-dihydropyridine], the IC50 in experiment [2] (setting [7]) was found to be 3.25 nM. In addition, in the experiment with SHR Rat, the “drop in blood pressure” value is 19%, the heart rate result is given as “without changing the heart rate” and the “period of drop in blood pressure” value came out at 9 h. Further, in the experiment on heart muscle [3], the “positive ionotropic effect” value is “about 12%”.
`COC(=O)C1=C(C)NC(C)=C(C(=O)OCCCCCCCc2nc(C)cs2)C1c1cccc(C(F)(F)F)c1` (centres unmarked) [Compound 13, 3-[7-(4-methylthiazol-2-yl)heptyloxycarbonyl]-5-methoxycarbonyl-2,6-dimethyl-4-(3-trifluoromethylphenyl)-1,4-dihydropyridine]: the “Percent Inhibition” value in the experiment with angiotensin (Concentration 0.1 µg/ml) was 80%.
`COC(=O)C1=C(C)NC(C)=C(C(=O)OCCCCCCCc2nc(C)cs2)C1c1cccc(Cl)c1` (centres unmarked) [Compound 15, 3-[7-(4-methylthiazol-2-yl)heptyloxycarbonyl]-5-methoxycarbonyl-2,6-dimethyl-4-(3-chlorophenyl)-1,4-dihydropyridine]: the “Percent Inhibition” value in the experiment with angiotensin (Concentration 0.1 µg/ml) was 64%. In addition, in experiment [2] (setting [7]), the IC50 worked out at 6.25 nM.
Turning to `COC(=O)C1=C(C)NC(C)=C(C(=O)OCCCCCCCc2nc(C)cs2)C1c1cccc(Cl)c1Cl` (centres unmarked) [Compound 17, 3-[7-(4-methylthiazol-2-yl)heptyloxycarbonyl]-5-methoxycarbonyl-2,6-dimethyl-4-(2,3-dichlorophenyl)-1,4-dihydropyridine], the IC50 in experiment [2] (Cavia porcellus, exponent printed in neighbouring spread cell (x 10⁻⁸), carbachol 5x10⁻⁷M, tonic component, triplicate, read-out: calcium channel antagonist act., inhib. act. on contractile Response to CD ID₅₀) came to 48.1 nM.
Regarding `COC(=O)C1=C(C)NC(C)=C(C(=O)OCCCCCCSc2nc(C)cs2)C1c1cccc([N+](=O)[O-])c1` (centres unmarked) [Compound 18, 3-[6-(4-methylthiazol-2-yl)thiohexyloxycarbonyl]-5-methoxycarbonyl-2,6-dimethyl-4-(3-nitrophenyl)-1,4-dihydropyridine], the IC50 in experiment [2] (setting [7]) was 5.48 nM.
Turning to `COC(=O)C1=C(C)NC(C)=C(C(=O)OCCCCCCS(=O)(=O)c2nc(C)cs2)C1c1cccc([N+](=O)[O-])c1` (centres unmarked) [Compound 19, 3-[6-(4-methylthiazol-2-yl)sulfonylhexyloxycarbonyl]-5-methoxycarbonyl-2,6-dimethyl-4-(3-nitrophenyl)-1,4-dihydropyridine], in experiment [2] (setting [7]), the IC50 was found to be 5.81 nM. Besides, in the experiment on heart muscle [3], the “positive ionotropic effect” value amounted to 25%.
In the case of `CCOC(=O)C1=C(C)NC(C)=C(C(=O)OC)C1c1cccc(Cl)c1Cl` (centres unmarked) [Felodipine, 3-ethoxycarbonyl-5-methoxycarbonyl-4-(2,3-dichlorophenyl)-2,6-dimethyl-1,4-dihydropyridine], in the experiment on heart muscle [5], the “effect on the heart” value is recorded as “no effect on the heart”.
